# Patent US12473250B2, “Molecular design of new antibiotics and antibiotic adjuvants against MCR strains” (priority 2019, dated 2025)
# How the values were obtained:
# various pathogens = experiment: organism not typed; type: cell-based
# How it was run: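 Broth microdilution MIC per CLSI: each agent alone and LC compound plus antibiotic (e.g. colistin) combined in equal amounts, serially diluted 2-fold at fixed synergy concentration.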
# mcr-1 bacterial membrane = experiment: Ethidium bromide (EtBr) fluorescence, membrane disruption; type: cell-based; details: mcr-1 bacteria; in words
# Description: However, EtBr is membrane impermeable, which means that it can only enter the bacterial cell and bind to DNA and emit fluorescence only when both the bacterial outer and inner membranes are perturbed. […] It is also possible that LC100 may have other targets. One possible target is the MCR-1 protein. To understand the interaction of LC100 and the MCR-1 protein, the fluorescence of MCR-1 protein in the presence of different concentration of LC100 was measured. MCR-1 protein contains several tryptophan residues, and autofluoresces at 323 nm.
substance,measurement,setting,value
Colistin,FOLD CHANGES [Absorbance (abs; OD 600 nm)] No Treatment [Bacteria alone]: MIC Colistin,various pathogens; E. Coli CRE 17528,20.21
same,MIC,various pathogens; E. Coli CRE 17528,0.78 µg/mL
same,FOLD CHANGES [Absorbance (abs; OD 600 nm)] No Treatment [Bacteria alone]: Colistin 0.5 μg,various pathogens; E. Coli CRE 19211,1.17
same,FOLD CHANGES [Absorbance (abs; OD 600 nm)] No Treatment [Bacteria alone]: MIC Colistin,various pathogens; E. Coli CRE 19211,20.56
same,MIC,various pathogens; E. Coli CRE 19211,1.56 µg/mL
same,FOLD CHANGES [Absorbance (abs; OD 600 nm)] No Treatment [Bacteria alone]: Colistin 0.5 μg,various pathogens; E. Coli CRE 34685,1.49
same,FOLD CHANGES [Absorbance (abs; OD 600 nm)] No Treatment [Bacteria alone]: MIC Colistin,various pathogens; E. Coli CRE 34685,22.63
same,MIC,various pathogens; E. Coli CRE 34685,0.78 µg/mL
same,FOLD CHANGES [Absorbance (abs; OD 600 nm)] No Treatment [Bacteria alone]: Colistin 0.5 μg,various pathogens; E. Coli DB 16027R,1.23
same,FOLD CHANGES [Absorbance (abs; OD 600 nm)] No Treatment [Bacteria alone]: MIC Colistin,various pathogens; E. Coli DB 16027R,14.89
same,MIC,various pathogens; E. Coli DB 16027R,0.78 µg/mL
same,FOLD CHANGES [Absorbance (abs; OD 600 nm)] No Treatment [Bacteria alone]: Colistin 0.5 μg,various pathogens; KLPN ATCC 4352,1.81
same,FOLD CHANGES [Absorbance (abs; OD 600 nm)] No Treatment [Bacteria alone]: MIC Colistin,various pathogens; KLPN ATCC 4352,3.54
same,MIC,various pathogens; KLPN ATCC 4352,0.78 µg/mL
same,FOLD CHANGES [Absorbance (abs; OD 600 nm)] No Treatment [Bacteria alone]: Colistin 0.5 μg,various pathogens; KLPN ATCC 10031,1.25
same,FOLD CHANGES [Absorbance (abs; OD 600 nm)] No Treatment [Bacteria alone]: MIC Colistin,various pathogens; KLPN ATCC 10031,10.11
same,MIC,various pathogens; KLPN ATCC 10031,1.56 µg/mL
same,FOLD CHANGES [Absorbance (abs; OD 600 nm)] No Treatment [Bacteria alone]: Colistin 0.5 μg,various pathogens; KLPN ATCC 27736,1.21
same,FOLD CHANGES [Absorbance (abs; OD 600 nm)] No Treatment [Bacteria alone]: MIC Colistin,various pathogens; KLPN ATCC 27736,9.67
same,MIC,various pathogens; KLPN ATCC 27736,0.78 µg/mL
same,FOLD CHANGES [Absorbance (abs; OD 600 nm)] No Treatment [Bacteria alone]: Colistin 0.5 μg,various pathogens; KLPN ATCC 35657,1.57
same,FOLD CHANGES [Absorbance (abs; OD 600 nm)] No Treatment [Bacteria alone]: MIC Colistin,various pathogens; KLPN ATCC 35657,13.49
same,MIC,various pathogens; KLPN ATCC 35657,1.56 µg/mL
same,FOLD CHANGES [Absorbance (abs; OD 600 nm)] No Treatment [Bacteria alone]: Colistin 0.5 μg,various pathogens; KLPN ATCC 700603,1.11
same,FOLD CHANGES [Absorbance (abs; OD 600 nm)] No Treatment [Bacteria alone]: MIC Colistin,various pathogens; KLPN ATCC 700603,9.64
same,MIC,various pathogens; KLPN ATCC 700603,1.56 µg/mL
same,FOLD CHANGES [Absorbance (abs; OD 600 nm)] No Treatment [Bacteria alone]: Colistin 0.5 μg,various pathogens; KLPN CRE 7955,1.64
same,FOLD CHANGES [Absorbance (abs; OD 600 nm)] No Treatment [Bacteria alone]: MIC Colistin,various pathogens; KLPN CRE 7955,10.28
same,MIC,various pathogens; KLPN CRE 7955,1.56 µg/mL
same,FOLD CHANGES [Absorbance (abs; OD 600 nm)] No Treatment [Bacteria alone]: Colistin 0.5 μg,various pathogens; KLPN CRE 15588,2.50
same,FOLD CHANGES [Absorbance (abs; OD 600 nm)] No Treatment [Bacteria alone]: MIC Colistin,various pathogens; KLPN CRE 15588,7.39
same,MIC,various pathogens; KLPN CRE 15588,0.78 µg/mL
same,FOLD CHANGES [Absorbance (abs; OD 600 nm)] No Treatment [Bacteria alone]: Colistin 0.5 μg,various pathogens; KLPN CRE 16260,1.06
same,MIC,various pathogens; KLPN CRE 16260,>50 µg/mL
same,FOLD CHANGES [Absorbance (abs; OD 600 nm)] No Treatment [Bacteria alone]: Colistin 0.5 μg,various pathogens; KLPN CRE 27025,5.24
same,FOLD CHANGES [Absorbance (abs; OD 600 nm)] No Treatment [Bacteria alone]: MIC Colistin,various pathogens; KLPN CRE 27025,11.84
same,MIC,various pathogens; KLPN CRE 27025,0.78 µg/mL
same,FOLD CHANGES [Absorbance (abs; OD 600 nm)] No Treatment [Bacteria alone]: Colistin 0.5 μg,various pathogens; KLPN CRE 55301,1.09
same,FOLD CHANGES [Absorbance (abs; OD 600 nm)] No Treatment [Bacteria alone]: MIC Colistin,various pathogens; KLPN CRE 55301,9.00
same,MIC,various pathogens; KLPN CRE 55301,0.78 µg/mL
same,FOLD CHANGES [Absorbance (abs; OD 600 nm)] No Treatment [Bacteria alone]: Colistin 0.5 μg,various pathogens; PAE ATCC 9027,0.98
same,FOLD CHANGES [Absorbance (abs; OD 600 nm)] No Treatment [Bacteria alone]: MIC Colistin,various pathogens; PAE ATCC 9027,8.80
same,MIC,various pathogens; PAE ATCC 9027,1.56 µg/mL
same,FOLD CHANGES [Absorbance (abs; OD 600 nm)] No Treatment [Bacteria alone]: Colistin 0.5 μg,various pathogens; PAE ATCC 9721,1.01
same,FOLD CHANGES [Absorbance (abs; OD 600 nm)] No Treatment [Bacteria alone]: MIC Colistin,various pathogens; PAE ATCC 9721,5.80
same,MIC,various pathogens; PAE ATCC 9721,1.56 µg/mL
same,FOLD CHANGES [Absorbance (abs; OD 600 nm)] No Treatment [Bacteria alone]: Colistin 0.5 μg,various pathogens; PAE ATCC 15442,1.03
same,FOLD CHANGES [Absorbance (abs; OD 600 nm)] No Treatment [Bacteria alone]: MIC Colistin,various pathogens; PAE ATCC 15442,14.00
same,MIC,various pathogens; PAE ATCC 15442,1.56 µg/mL
same,FOLD CHANGES [Absorbance (abs; OD 600 nm)] No Treatment [Bacteria alone]: Colistin 0.5 μg,various pathogens; PAE ATCC 27853,0.96
same,FOLD CHANGES [Absorbance (abs; OD 600 nm)] No Treatment [Bacteria alone]: MIC Colistin,various pathogens; PAE ATCC 27853,8.35
same,MIC,various pathogens; PAE ATCC 27853,0.78 µg/mL
same,FOLD CHANGES [Absorbance (abs; OD 600 nm)] No Treatment [Bacteria alone]: Colistin 0.5 μg,various pathogens; PAE ATCC BAA-1744,1.11
same,FOLD CHANGES [Absorbance (abs; OD 600 nm)] No Treatment [Bacteria alone]: MIC Colistin,various pathogens; PAE ATCC BAA-1744,6.81
same,MIC,various pathogens; PAE ATCC BAA-1744,1.56 µg/mL
same,FOLD CHANGES [Absorbance (abs; OD 600 nm)] No Treatment [Bacteria alone]: Colistin 0.5 μg,various pathogens; PAE DM 4150,1.02
same,FOLD CHANGES [Absorbance (abs; OD 600 nm)] No Treatment [Bacteria alone]: MIC Colistin,various pathogens; PAE DM 4150,10.34
same,MIC,various pathogens; PAE DM 4150,3.125 µg/mL
same,FOLD CHANGES [Absorbance (abs; OD 600 nm)] No Treatment [Bacteria alone]: Colistin 0.5 μg,various pathogens; PAE DM 23155,1.30
same,FOLD CHANGES [Absorbance (abs; OD 600 nm)] No Treatment [Bacteria alone]: MIC Colistin,various pathogens; PAE DM 23155,7.00
same,MIC,various pathogens; PAE DM 23155,1.56 µg/mL
same,FOLD CHANGES [Absorbance (abs; OD 600 nm)] No Treatment [Bacteria alone]: Colistin 0.5 μg,various pathogens; PAE DM 23257,1.02
same,FOLD CHANGES [Absorbance (abs; OD 600 nm)] No Treatment [Bacteria alone]: MIC Colistin,various pathogens; PAE DM 23257,7.71
same,MIC,various pathogens; PAE DM 23257,1.56 µg/mL
same,FOLD CHANGES [Absorbance (abs; OD 600 nm)] No Treatment [Bacteria alone]: Colistin 0.5 μg,various pathogens; PAE DM 23376,0.93
same,FOLD CHANGES [Absorbance (abs; OD 600 nm)] No Treatment [Bacteria alone]: MIC Colistin,various pathogens; PAE DM 23376,8.00
same,MIC,various pathogens; PAE DM 23376,1.56 µg/mL
same,FOLD CHANGES [Absorbance (abs; OD 600 nm)] No Treatment [Bacteria alone]: Colistin 0.5 μg,various pathogens; PAE DR 4877,1.30
same,FOLD CHANGES [Absorbance (abs; OD 600 nm)] No Treatment [Bacteria alone]: MIC Colistin,various pathogens; PAE DR 4877,12.00
same,MIC,various pathogens; PAE DR 4877,1.56 µg/mL
same,FOLD CHANGES [Absorbance (abs; OD 600 nm)] No Treatment [Bacteria alone]: Colistin 0.5 μg,various pathogens; PAE DR 5790,1.06
same,FOLD CHANGES [Absorbance (abs; OD 600 nm)] No Treatment [Bacteria alone]: MIC Colistin,various pathogens; PAE DR 5790,10.25
same,MIC,various pathogens; PAE DR 5790,0.78 µg/mL
same,FOLD CHANGES [Absorbance (abs; OD 600 nm)] No Treatment [Bacteria alone]: Colistin 0.5 μg,various pathogens; PAE DU 14476,0.90
same,FOLD CHANGES [Absorbance (abs; OD 600 nm)] No Treatment [Bacteria alone]: MIC Colistin,various pathogens; PAE DU 14476,7.21
same,MIC,various pathogens; PAE DU 14476,1.56 µg/mL
same,EtBr fluorescence,mcr-1 bacterial membrane,slight fluorescence
